Measured values taken from US8143419B2, “Trisubstituted 1,2,4-triazoles” (Janssen Pharmaceutica N. V., priority 2006, dated 2012).

Experiments:
hα7-wt nAChR [1] = target: T1, hα7-wt nAChR (Homo sapiens, UniProt P36544); experiment: Ca2+ flux imaging (FLIPR) (Protocol A), PAM activity with choline as agonist; format: cell-based; conditions: for EC50: "<5" = no top plateau at maximal concentration
T1 construct: expressed in transfected cells
From the text: Stable expression in mammalian cells in general and rat GH4C1 cells in particular, of cDNA clones encoding the human α7 wild-type sequence (hα7-wt nAChR) and in which the coding region is placed downstream of a promoter results in the appearance of functional α7 nAChRs on the surface of the mammalian cells. This technique has provided a powerful means of assessing the function of α7 wild-type protein. Given the fact that the cation permeability of the α7 nicotinic receptor preferentially favours calcium, fluorescent imaging of Ca^2+ flux through the hα7-wt nAChR stably expressed in the GH4C1 cell line was used as a first means of assaying modulator activity of the compounds of the present invention.
• Hanks buffered saline solution (HBSS, Invitrogen, Belgium), supplemented with 10 mM HEPES (Invitrogen, Belgium), CaCl2 to a final concentration of 5 mM, 0.1% Bovine serum albumin (Sigma-Aldrich NV, Belgium), 2.5 mM probenecid (Sigma-Aldrich NV, Belgium). b) Calcium-Sensitive Dye—Fluo-4AM • Fluo-4AM (Molecular Probes, USA) was dissolved in DMSO containing 10% Pluronic acid (Molecular Probes, USA) to give a stock solution which was aliquoted and stored at −20° C. until later use. On the day of the experiment Fluo-4AM stock was defrosted and diluted in DMEM/F12 (Invitrogen, Belgium) to give a final concentration of 4 μM. c) 96-Well Plates • BD Biocoat poly-D-lysine 96-well black/clear plates (BD Biosciences, Belgium) d) Calcium Flux Measurement • A Fluorimetric Imaging Plate Reader (FLIPR, Molecular Devices Corporation, Sunnyvale, USA) was used to measure intracellular free-calcium flux signals Method
Monolayers of hα7-wt nAChR-expressing cells were grown in multi-well plates, in particular black-sided, transparent bottomed 96 well plates coated with poly-D-lysine for 24 hours prior to loading with a fluorescent calcium indicator, in a particular embodiment loading with fluo-3 or fluo-4AM for up to 90 minutes, in an even more particular embodiment loading with fluo-4AM for up to 90 minutes, and in a preferred embodiment loading with fluo-4AM for up to 60 minutes.
PAM activity was detected in real time by applying the compounds to be tested to the loaded cells along with a α7 nicotinic receptor agonist during constant monitoring of cellular fluorescence in a FLIPR. Compounds giving peak fluorescent responses greater than the response due to agonist alone, were considered to be α7 nAChR PAM's. In a particular embodiment, the α7 nicotinic receptor agonist was choline, a more particular embodiment choline applied at a sub-maximal concentration of 100 μM. In a further setting of the present invention the compounds to be tested were applied prior to the α7 nicotinic receptor agonist, in a particular embodiment up to 20 minutes prior to the agonist, a more particular embodiment up to 10 minutes prior to the agonist, and an even more particular embodiment 10 minutes prior to the agonist.
A control response to choline was calculated on each plate from the difference in peak in fluorescence in wells receiving either choline or assay buffer alone. Compounds of the present invention were tested at a concentration range from 0.1 μM to 50 μM. Compounds were considered to have an interesting activity when their efficacy was at least 500% when tested at the concentration where they have a maximal effect, typically between 0.1 μM and 50 μM (the efficacy of 100 μM choline was defined as 100% in the absence of a PAM). The compounds also have a potentiating effect on the response to choline when measured by whole-cell patch clamp electrophysiology in GH4C1 cells stably over-expressing the human wild-type α7 receptor.

hα7-wt nAChR [2] = target: T1, hα7-wt nAChR; experiment: Ca2+ flux imaging (FDSS) (Protocol B), PAM activity with choline as agonist; format: cell-based; conditions: for EC50: "<5" = no top plateau at maximal concentration; for Emax: read-out: % efficacy
How it was run: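 Cells stably expressing human wild-type α7 nAChR, loaded with fluo-4AM (2 μM final) up to 120 min in HBSS/10 mM HEPES/5 mM CaCl2/0.1% BSA with 5 mM probenecid. Compounds (0.01–30 μM) added up to 10 min before 100 μM choline; peak fluorescence read on FDSS, potentiation expressed relative to choline-alone response (100%).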

T1 sequence (P36544 23-502): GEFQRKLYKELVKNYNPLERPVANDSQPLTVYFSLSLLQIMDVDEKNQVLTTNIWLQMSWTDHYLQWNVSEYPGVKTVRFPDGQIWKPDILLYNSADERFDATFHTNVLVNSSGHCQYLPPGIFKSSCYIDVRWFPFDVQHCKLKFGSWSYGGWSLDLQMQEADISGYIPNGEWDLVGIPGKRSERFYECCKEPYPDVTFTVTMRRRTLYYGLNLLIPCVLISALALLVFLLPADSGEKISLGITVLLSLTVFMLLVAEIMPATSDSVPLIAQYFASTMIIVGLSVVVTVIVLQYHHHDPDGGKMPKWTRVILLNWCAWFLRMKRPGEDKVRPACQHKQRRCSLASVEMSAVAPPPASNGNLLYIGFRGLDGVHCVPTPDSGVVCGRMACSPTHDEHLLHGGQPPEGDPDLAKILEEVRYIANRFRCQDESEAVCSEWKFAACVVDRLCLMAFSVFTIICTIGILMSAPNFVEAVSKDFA

Compound | EC50 (hα7-wt nAChR [1]) | melting point | Emax (hα7-wt nAChR [1]; read-out: % efficacy) | EC50 (hα7-wt nAChR [2]) | Emax (hα7-wt nAChR [2])
CC(O)Cn1nc(Nc2cccc(OC(F)(F)F)c2)nc1-c1ccc(C2CC2)nc1 (stereo not drawn) [Compound 150] | 3980 nM | 125.5 °C | – | – | –
CN(C)C(=O)Cn1nc(Nc2cccc(C(F)(F)F)c2)nc1-c1ccc2c(c1)OCCO2 [Compound 23] | > 10000 nM | – | – | – | –
CNC(=O)Cn1nc(Nc2cc(F)cc(F)c2)nc1-c1ccnc(NC)c1 [Compound 178] | > 10000 nM | 247 °C | – | – | –
C[C@@H](O)Cn1nc(Nc2ccc(F)c(C(F)(F)F)c2)nc1-c1ccc(C2CC2)nc1 [Compound 100] | 3980 nM | – | – | – | –
CNC(=O)CCn1nc(Nc2cccc(C(F)(F)F)c2)nc1-c1ccncc1 [Compound 11] | > 10000 nM | – | 938% | – | –
OCCn1nc(Nc2cccc(C(F)(F)F)c2)nc1-c1ccnc(Cl)c1 [Compound 7] | 6310 nM | – | – | – | –
Cc1cc(-c2nc(Nc3ccc4c(c3)OC(F)(F)O4)nn2CC(=O)NC2CCOC2)ccn1 (stereo not drawn) [Compound 208] | – | 253.8 °C | – | 5010 nM | 909%
CN(C)C(=O)CCn1nc(Nc2ccc(F)c(C(F)(F)F)c2)nc1-c1ccnc(CNC(=O)C(F)(F)F)c1 [Compound 59] | – | 182.4 °C | – | 158 nM | 669%
OCCn1nc(Nc2ccc(F)c(C(F)(F)F)c2)nc1-c1ccncc1F [Compound 89] | – | 149.4 °C | – | 5010 nM | –
FCCn1nc(Nc2cccc(OC(F)(F)F)c2)nc1-c1ccnc(C2CC2)c1 [Compound 152] | 3980 nM | – | – | – | –
COc1cc(-c2nc(Nc3cccc(C(F)(F)F)c3)nn2CCO)ccn1 [Compound 73] | – | 165.4 °C | – | 3160 nM | –
NC(=O)Cn1nc(Nc2cccc(C(F)(F)F)c2)nc1-c1ccc2c(c1)OCCO2 [Compound 21] | – | 225.5 °C | – | 1260 nM | –
OCCn1nc(Nc2cccc(C(F)(F)F)c2)nc1-c1ccc(C2CC2)nc1 [Compound 76] | – | 152.9 °C | – | 501 nM | –
COCc1cc(-c2nc(Nc3ccc(F)c(C(F)(F)F)c3)nn2CC(=O)NC2CC2)ccn1 [Compound 62] | – | 204.6 °C | – | 316 nM | –
CCNC(=O)Cn1nc(Nc2ccc3c(c2)OC(F)(F)O3)nc1-c1ccnc(C)c1F [Compound 201] | – | 223.5 °C | – | 1000 nM | –
CCOc1ccc(-c2nc(Nc3ccc(F)c(C(F)(F)F)c3)nn2CC(=O)NC)cn1 [Compound 111] | – | 236.2 °C | – | 251 nM | –
NC(=O)Cn1nc(Nc2cccc(C(F)(F)F)c2)nc1-c1ccncc1 [Compound 19] | – | 271 to 272.1 °C | – | > 10000 nM | –
CCNC(=O)Cn1nc(Nc2ccc(F)c(C(F)(F)F)c2)nc1-c1ccncc1C [Compound 118] | – | 238.6 °C | – | 794 nM | –
CCNc1cc(-c2nc(Nc3ccc4c(c3)OC(F)(F)O4)nn2CC(C)O)ccn1 (stereo not drawn) [Compound 199] | – | 167.9 °C | – | 2510 nM | –
COc1cccc(-c2nc(Nc3cccc(OC(F)(F)F)c3)nn2CC(=O)NC2CC2)c1 [Compound 162] | – | 196.5 to 206.2 °C | – | 79.4 nM | –
C[C@H](O)Cn1nc(Nc2ccc(F)c(C(F)(F)F)c2)nc1-c1ccnc(NCC2CC2)c1 [Compound 104] | – | 145.8 °C | – | 3160 nM | –
CCNC(=O)Cn1nc(Nc2ccc3c(c2)OC(F)(F)O3)nc1-c1ccnc(C)c1 [Compound 46] | – | 244.9 °C | – | 2000 nM | –
CNC(=O)Cn1nc(Nc2ccc3c(c2)OC(F)(F)O3)nc1-c1cc(C)ncc1Cl [Compound 202] | – | 243 °C | – | 3160 nM | –
CC(=O)NCCn1nc(Nc2ccc(F)c(C(F)(F)F)c2)nc1-c1ccncc1 [Compound 138] | – | 174.3 °C | – | > 10000 nM | –

Compound | EC50 (hα7-wt nAChR [1]) | melting point | Emax (hα7-wt nAChR [1]; read-out: % efficacy) | EC50 (hα7-wt nAChR [2]) | Emax (hα7-wt nAChR [2])
CNc1ccc(-c2nc(Nc3cc(F)c(F)cc3F)nn2CCC(=O)N(C)C)cn1 [Compound 189] | – | 166.7 °C | – | 794 nM | –
COc1cc(Nc2nc(-c3ccnc(C)c3)n(CCC(=O)N(C)C)n2)ccc1F [Compound 187] | – | 137.3 °C | – | 3980 nM | –
CN(C)C(=O)CCn1nc(Nc2cccc(OC(F)(F)F)c2)nc1-c1ccncc1 [Compound 168] | – | 178.4 °C | – | 501 nM | –
C[C@H](O)Cn1nc(Nc2ccc(F)c(F)c2)nc1-c1ccc(C(=O)N2CCCC2)nc1 [Compound 174] | – | 181.7 °C | – | > 10000 nM | 667%
CNC(=O)Cn1nc(Nc2cccc(C(F)(F)F)c2)nc1-c1ccc2c(c1)OCCO2 [Compound 1] | – | 206.2 to 207.1 °C | – | 251 nM | –
COCCNC(=O)Cn1nc(Nc2cccc(C(F)(F)F)c2)nc1-c1ccc2c(c1)OCCO2 [Compound 82] | – | 166.3 to 168.3 °C | – | 200 nM | –
CNc1cc(-c2nc(Nc3ccc(F)c(C(F)(F)F)c3)nn2C[C@H](C)O)ccn1 [Compound 98] | – | 164.5 °C | – | > 10000 nM | –
CCc1cc(-c2nc(Nc3cccc(C(F)(F)F)c3)nn2CCO)ccn1 [Compound 70] | – | 167.9 °C | – | 2000 nM | –
CCOc1ccc(-c2nc(Nc3ccc(F)cc3)nn2CCO)cn1 [Compound 170] | – | 162.2 °C | – | > 10000 nM | –
Cc1nc(CCn2nc(Nc3ccc(F)c(C(F)(F)F)c3)nc2-c2ccncc2)no1 [Compound 141] | – | 140.3 °C | – | 2510 nM | –
CN(C)C(=O)CCn1nc(Nc2ccc(F)c(C(F)(F)F)c2)nc1-c1ccc(C2CC2)nc1 [Compound 132] | – | 177.3 °C | – | 15.8 nM | –
CNC(=O)Cn1nc(Nc2cccc(OC(F)(F)F)c2)nc1-c1ccc2c(c1)OCCN2C [Compound 157] | – | 222.4 °C | – | 398 nM | –
CCNC(=O)Cn1nc(Nc2cc(F)c(F)c(NCC)c2)nc1-c1ccnc(NCC)c1 [Compound 181] | – | 192.8 °C | – | 794 nM | –
Cc1cc(-c2nc(Nc3ccc(F)c(C#N)c3)nn2CCC(=O)N(C)C)ccn1 [Compound 186] | – | 203.9 °C | – | 398 nM | –
CN(C)c1cc(-c2nc(Nc3cccc(C(F)(F)F)c3)nn2CCO)ccn1 [Compound 75] | – | 164.2 °C | – | 2510 nM | –
O=C(Cn1nc(Nc2ccc(F)c(C(F)(F)F)c2)nc1-c1ccnc(CO)c1)NC1CC1 [Compound 61] | – | 242.2 °C | – | 5010 nM | –
CNC(=O)Cn1nc(Nc2cc(F)cc(F)c2)nc1-c1ccnc(C2CC2)c1 [Compound 179] | – | 222.4 °C | – | 3160 nM | –
CNC(=O)Cn1nc(Nc2ccc(F)c(C(F)(F)F)c2)nc1-c1cnc2c(c1)OCC2 [Compound 28] | – | 246.8 °C | – | 794 nM | –
CNC(=O)Cn1nc(Nc2ccc(F)c(C(F)(F)F)c2)nc1-c1ccncc1F [Compound 116] | – | 249.5 °C | – | 1260 nM | –
CN(C)C(=O)CCn1nc(Nc2cccc(C(F)(F)F)c2)nc1-c1ccncc1 [Compound 4] | – | 164.2 to 174.2 °C | – | 501 nM | –
CC(C)NC(=O)CCn1nc(Nc2ccc(F)c(C(F)(F)F)c2)nc1-c1ccncc1 [Compound 136] | – | 217.7 °C | – | 3160 nM | –
Cc1cc(Nc2nc(-c3ccnc(Cl)c3)n(CCC(=O)N(C)C)n2)ccc1F [Compound 192] | – | 149 °C | – | 631 nM | –
Cc1cc(-c2nc(Nc3ccc4c(c3)OC(F)(F)O4)nn2CCC(=O)N(C)C)ccn1 [Compound 45] | – | 219.3 °C | – | 631 nM | –
